The numbers were not newly measured in patent US12329899B2, “Dry powder inhaler and methods of use” (Aspeya US Inc., priority 2012, dated 2025), which cites them from elsewhere.

For series [1] the following is noted: any dose above 30 mg daily.
For series [2] the following is noted: 75 mg/day.
The test system of the next series is platelet. Conditions: 50 mg/day, some patients; the remainder needed over 50 mg/day.
For series [3] the following is noted: oral administration, 325 mg.
For series [4] the following is noted: oral solution of 650 mg, four male subjects.

Turning to `CC(=O)Oc1ccccc1C(=O)O` [aspirin, acetylsalicylic acid], the vascular events prevented in series [1] is given as 13%. For the same molecule, in series [2], the “gastrointestinal side-effects, bleeding episodes” value is reported as “significant excess of bleeding episodes”. For the same molecule, in series [2] (patients with cerebrovascular ischaemic events), the “risk of stroke or death” value is recorded as “significantly reduces the risk of stroke or death”. The platelet inhibition result in the series with platelet was “satisfactory platelet inhibition”. Moreover, the “increase of major gastrointestinal and extracranial bleeds” value in series [3] is “over 50%”. For the same molecule, the “dose that reached the peripheral circulation intact (AUC oral vs intravenous)” value in series [4] is recorded as 68%. For the setting “oral administration”, the “loss or inactivation of the oral dosage due to the first pass effect in the gut and liver” value is on record as “approximately ⅔”. Also, under “taken orally”, the “fraction of the dose bioavailable due to the first pass effect” value is “about one to two-thirds”.
